Tests used:
Type in all cases: cell-based
[1] = test system: canine epithelial cells; assay: Cytotoxicity, neutral red retention
From the text: FIGS. 1 and 2 illustrate the relative cytotoxicity of compounds, some of which are in accordance with the present invention.
FIGS. 1 and 2 illustrate the cytotoxicity of the compounds shown in the above examples. In particular, these Figures show the neutral red retention of canine epithelial cells for the various compounds with the greater neutral red retention showing the lower the cytotoxicity. […] As such, many of these phosphonium antimicrobial agents can be used as suitable replacements for benzalkonium chloride particularly in circumstances where benzalkonium chloride is unsuitable (e.g., is incompatible with other ingredients in a solution).

[2] = test system: E. Coli; assay: Preservative efficacy test (PET), E. Coli; settings: boric acid/mannitol/NaCl, pH 6.0
From the text: (§1) The present invention is particularly useful for the provision of multi-dose pharmaceutical (e.g., ophthalmic) compositions that have sufficient antimicrobial activity to allow the compositions to satisfy the USP preservative efficacy requirements, as well as other preservative efficacy standards for aqueous pharmaceutical compositions.
(§2) The preservative efficacy standards for multi-dose ophthalmic solutions in the U.S. and other countries/regions are set forth in the following table:
(§3) Concentrations for the various ingredients of the compositions of the examples provided below are w/v % unless otherwise specifically stated. The compositions of Examples A-D and their preservation efficacy testing (PET) results are provided below.

[3] = test system: Bacteria, Fungi; assay: PET overall result (Pass/Fail against USP / Ph. Eur. criteria); settings: for PET Results (Pass/Fail): boric acid/mannitol/NaCl, pH 6.0
From the text: as §1, §2, §3

[4] = test system: Staph Aureus; assay: Preservative efficacy test (PET), Staph Aureus; settings: boric acid/mannitol/NaCl, pH 6.0
From the text: as §1, §2, §3

[5] = test system: Aspergillus N.; assay: Preservative efficacy test (PET), Aspergillus N.; settings: boric acid/mannitol/NaCl, pH 6.0
From the text: as §1, §2, §3

[6] = test system: Candida A.; assay: Preservative efficacy test (PET), Candida A.; settings: boric acid/mannitol/NaCl, pH 6.0
From the text: as §1, §2, §3

[7] = test system: Pseudomonas A.; assay: Preservative efficacy test (PET), Pseudomonas A.; settings: boric acid/mannitol/NaCl, pH 6.0
From the text: as §1, §2, §3

`OC[P+](CO)(CO)CO.[Cl-]` [Tetrakis-Hydroxymethyl-Phosphonium Chloride] was tested. Which “cytotoxicity (neutral red retention of canine epithelial cells)” value ([1]; FIG. 1, greater neutral red retention = lower cytotoxicity) did it give?
The value was “extremely low level of cytotoxicity”.

And the “cytotoxicity (neutral red retention of canine epithelial cells)” value ([1]; FIG. 2, various concentrations and vehicles)?
Its value is “extremely low toxicity regardless of concentration and/or the vehicle”.

What about the “E. Coli (6 Hr), PET log order reduction” value ([2]; 0.0025 % w/v) of the same molecule?
The value was 5.1/5.1/.

And the “E. Coli (6 Hr), PET log order reduction” value ([2]; 0.005 % w/v)?
Its value is 5.1/5.1/.

And the “E. Coli (6 Hr), PET log order reduction” value ([2]; 0.01 % w/v)?
The value was 5.1/5.1/.

What about the “E. Coli (7 Day), PET log order reduction” value ([2]; 0.0025 % w/v) of the same molecule?
Its value is 5.1/5.1/5.1.

And the “E. Coli (7 Day), PET log order reduction” value ([2]; 0.005 % w/v)?
The value was 5.1/5.1/5.1.

And the “E. Coli (7 Day), PET log order reduction” value ([2]; 0.01 % w/v)?
Its value is 5.1/5.1/5.1.

And the “E. Coli (14 Day), PET log order reduction” value ([2]; 0.0025 % w/v)?
The value was 5.1/5.1/5.1.

And the “E. Coli (14 Day), PET log order reduction” value ([2]; 0.005 % w/v)?
The value was 5.1/5.1/5.1.

And the “E. Coli (14 Day), PET log order reduction” value ([2]; 0.01 % w/v)?
The value was 5.1/5.1/5.1.

What about the “E. Coli (24 Hr), PET log order reduction” value ([2]; 0.0025 % w/v) of the same molecule?
The value was 5.1/5.1/.

And the “E. Coli (24 Hr), PET log order reduction” value ([2]; 0.005 % w/v)?
Its value is 5.1/5.1/.

What about the “E. Coli (24 Hr), PET log order reduction” value ([2]; 0.01 % w/v) of the same molecule?
Its value is 5.1/5.1/.

What about the “E. Coli (28 Day), PET log order reduction” value ([2]; 0.0025 % w/v) of the same molecule?
Its value is 5.1/5.1/5.1.

And the “E. Coli (28 Day), PET log order reduction” value ([2]; 0.005 % w/v)?
Its value is 5.1/5.1/5.1.

What about the “E. Coli (28 Day), PET log order reduction” value ([2]; 0.01 % w/v) of the same molecule?
Its value is 5.1/5.1/5.1.

What about the “PET Results (Pass/Fail)” value ([3]; 0.0025 % w/v) of the same molecule?
The value was “Pass USP”.

And the “PET Results (Pass/Fail)” value ([3]; 0.005 % w/v)?
The value was “Pass USP”.

What about the “PET Results (Pass/Fail)” value ([3]; 0.01 % w/v) of the same molecule?
The value was “Pass EP-B”.

What about the “preservation / antimicrobial efficacy, in words” value ([3]; summary statements of the text on the PET tables) of the same molecule?
Its value is “highly desirable antimicrobial efficacy”.

And the “Staph Aureus (6 Hr), PET log order reduction” value ([4]; 0.0025 % w/v)?
The value was 5.0/5.0/.

And the “Staph Aureus (6 Hr), PET log order reduction” value ([4]; 0.005 % w/v)?
Its value is 5.0/5.0/.

And the “Staph Aureus (6 Hr), PET log order reduction” value ([4]; 0.01 % w/v)?
The value was 5.0/5.0/.

What about the “Staph Aureus (7 Day), PET log order reduction” value ([4]; 0.0025 % w/v) of the same molecule?
The value was 5.0/5.0/5.0.

And the “Staph Aureus (7 Day), PET log order reduction” value ([4]; 0.005 % w/v)?
Its value is 5.0/5.0/5.0.

What about the “Staph Aureus (7 Day), PET log order reduction” value ([4]; 0.01 % w/v) of the same molecule?
Its value is 5.0/5.0/5.0.

And the “Staph Aureus (14 Day), PET log order reduction” value ([4]; 0.0025 % w/v)?
The value was 5.0/5.0/5.0.

And the “Staph Aureus (14 Day), PET log order reduction” value ([4]; 0.005 % w/v)?
The value was 5.0/5.0/5.0.

What about the “Staph Aureus (14 Day), PET log order reduction” value ([4]; 0.01 % w/v) of the same molecule?
Its value is 5.0/5.0/5.0.

And the “Staph Aureus (24 Hr), PET log order reduction” value ([4]; 0.0025 % w/v)?
Its value is 5.0/5.0/.

What about the “Staph Aureus (24 Hr), PET log order reduction” value ([4]; 0.005 % w/v) of the same molecule?
Its value is 5.0/5.0/.

And the “Staph Aureus (24 Hr), PET log order reduction” value ([4]; 0.01 % w/v)?
The value was 5.0/5.0/.

And the “Staph Aureus (28 Day), PET log order reduction” value ([4]; 0.0025 % w/v)?
Its value is 5.0/5.0/5.0.

And the “Staph Aureus (28 Day), PET log order reduction” value ([4]; 0.005 % w/v)?
Its value is 5.0/5.0/5.0.

What about the “Staph Aureus (28 Day), PET log order reduction” value ([4]; 0.01 % w/v) of the same molecule?
Its value is 5.0/5.0/5.0.

And the “Aspergillus N. (7 D), PET log order reduction” value ([5]; 0.0025 % w/v)?
The value was 3.1.

What about the “Aspergillus N. (7 D), PET log order reduction” value ([5]; 0.005 % w/v) of the same molecule?
The value was 3.3.

And the “Aspergillus N. (7 D), PET log order reduction” value ([5]; 0.01 % w/v)?
Its value is 3.2.

What about the “Aspergillus N. (14 D), PET log order reduction” value ([5]; 0.0025 % w/v) of the same molecule?
Its value is 2.9.

What about the “Aspergillus N. (14 D), PET log order reduction” value ([5]; 0.005 % w/v) of the same molecule?
Its value is 3.2.

And the “Aspergillus N. (14 D), PET log order reduction” value ([5]; 0.01 % w/v)?
Its value is 5.3.

What about the “Aspergillus N. (28 Day), PET log order reduction” value ([5]; 0.0025 % w/v) of the same molecule?
Its value is 2.4.

And the “Aspergillus N. (28 Day), PET log order reduction” value ([5]; 0.005 % w/v)?
The value was 3.2.

And the “Aspergillus N. (28 Day), PET log order reduction” value ([5]; 0.01 % w/v)?
Its value is 5.3.

And the “Candida A. (7 Day), PET log order reduction” value ([6]; 0.0025 % w/v)?
Its value is 0.0.

What about the “Candida A. (7 Day), PET log order reduction” value ([6]; 0.005 % w/v) of the same molecule?
Its value is 0.1.

And the “Candida A. (7 Day), PET log order reduction” value ([6]; 0.01 % w/v)?
The value was 0.9.

What about the “Candida A. (14 Day), PET log order reduction” value ([6]; 0.0025 % w/v) of the same molecule?
The value was 0.2.

And the “Candida A. (14 Day), PET log order reduction” value ([6]; 0.005 % w/v)?
The value was 0.7.

And the “Candida A. (14 Day), PET log order reduction” value ([6]; 0.01 % w/v)?
The value was 2.2.

What about the “Candida A. (28 Day), PET log order reduction” value ([6]; 0.0025 % w/v) of the same molecule?
The value was 1.2.

What about the “Candida A. (28 Day), PET log order reduction” value ([6]; 0.005 % w/v) of the same molecule?
Its value is 2.0.

What about the “Candida A. (28 Day), PET log order reduction” value ([6]; 0.01 % w/v) of the same molecule?
Its value is 3.9.

What about the “Pseudomonas A. (6 Hr), PET log order reduction” value ([7]; 0.0025 % w/v) of the same molecule?
Its value is 3.3.

And the “Pseudomonas A. (6 Hr), PET log order reduction” value ([7]; 0.005 % w/v)?
The value was 5.0/5.0/.

What about the “Pseudomonas A. (6 Hr), PET log order reduction” value ([7]; 0.01 % w/v) of the same molecule?
Its value is 5.0/5.0/.

And the “Pseudomonas A. (7 Day), PET log order reduction” value ([7]; 0.0025 % w/v)?
Its value is 5.0/5.0/5.0.

What about the “Pseudomonas A. (7 Day), PET log order reduction” value ([7]; 0.005 % w/v) of the same molecule?
The value was 5.0/5.0/5.0.

And the “Pseudomonas A. (7 Day), PET log order reduction” value ([7]; 0.01 % w/v)?
The value was 5.0/5.0/5.0.

What about the “Pseudomonas A. (14 Day), PET log order reduction” value ([7]; 0.0025 % w/v) of the same molecule?
The value was 5.0/5.0/5.0.

And the “Pseudomonas A. (14 Day), PET log order reduction” value ([7]; 0.005 % w/v)?
Its value is 5.0/5.0/5.0.

And the “Pseudomonas A. (14 Day), PET log order reduction” value ([7]; 0.01 % w/v)?
Its value is 5.0/5.0/5.0.

What about the “Pseudomonas A. (24 Hr), PET log order reduction” value ([7]; 0.0025 % w/v) of the same molecule?
Its value is 5.0.

And the “Pseudomonas A. (24 Hr), PET log order reduction” value ([7]; 0.005 % w/v)?
Its value is 5.0/5.0/.

And the “Pseudomonas A. (24 Hr), PET log order reduction” value ([7]; 0.01 % w/v)?
Its value is 5.0/5.0/.

And the “Pseudomonas A. (28 Day), PET log order reduction” value ([7]; 0.0025 % w/v)?
Its value is 5.0/5.0/5.0.

What about the “Pseudomonas A. (28 Day), PET log order reduction” value ([7]; 0.005 % w/v) of the same molecule?
The value was 5.0/5.0/5.0.

And the “Pseudomonas A. (28 Day), PET log order reduction” value ([7]; 0.01 % w/v)?
The value was 5.0/5.0/5.0.

Source: patent US9694021B2, “Pharmaceutical compositions with phosphonium antimicrobial agents” (Alcon Research, Ltd., priority 2010, dated 2017)
